Test results published in EP1142584A1, “COMPOSITIONS FOR TREATING FREQUENT URINATION AND URINARY INCONTINENCE” (Takeda Chemical Industries, Ltd., priority 1999, dated 2000).
Structures can show the parent of a compound that is named as a salt. Marks after values point to notes of the source that are not given here.

Experiments:
Format in all cases: in vivo
[1] = test system: bilateral common carotid artery-ligated rat under consciousness; assay: Micturition interval in bilateral common carotid artery-ligated rat under consciousness (Test Example 4); conditions: for Micturition interval (relative to before ligation, %) After administration / Micturition pressure (relative to before ligation, %) After administration: 30 minutes after administration; for Micturition interval (relative to before ligation, %) After administration / Micturition pressure (relative to before ligation, %) After administration / Micturition interval (relative to before ligation, %) Before administration / Micturition pressure (relative to before ligation, %) Before administration: mean ± standard error; for Micturition interval (relative to before ligation, %) Before administration / Micturition pressure (relative to before ligation, %) Before administration: after ligation, before drug
Method: The urinary frequency and urinary incontinence suppressing activity of a GABA uptake inhibitor was measured as the ability to increase the micturition interval in bilateral common carotid artery-ligated rat under consciousness as an index. An animal was restricted in a Ballmann cage, and physiological saline was sustained-injected into the bladder at a constant rate (0.1 ml/min.) to induce repeated micturition. After the stable micturition interval was confirmed, common carotid arteries were ligated bilaterally and micturition interval was decreased. A compound was administered intravenously to animals with micturition interval decreased 20% or more following ligation, and the activity was investigated. The micturition interval and micturition pressure before and after drug administration were measured for 30 minutes, and the averages are expressed as the ratio to the value before bilateral common carotid artery-ligation (Table 4). […]
Tiagabin hydrochloride was dissolved in distilled water and administered intravenously. Crystometograms for 30 minutes before and after drug administration were continuously measured and compared. Data are shown as a ratio to micturition interval and micturition pressure before bilateral common carotid artery-ligation (mean ± standard error). *P<0.05, **P<0.01 (significance relative to before drug administration, paired t test, two-tailed test)

[2] = test system: bladder capacity in urethane-anesthetized rats; assay: Bladder capacity (cystometry) in urethane-anesthetized rats (Test Example 3); conditions: mean ± standard error
Method: The urinary frequency and urinary incontinence suppressing activity of a GABA uptake inhibitor was shown by the ability to increase bladder capacity in urethane-anesthetized rats. After a bladder was made empty by drawing out the urine, physiological saline warmed at 39°C was injected into the bladder at a constant rate (0.05 ml/min.) to induce micturition. These procedures were repeated to confirm stable bladder capacity (volume of physiological saline injected until start of micturition) and, thereafter, compounds were administered intravenously to investigate the activities. A change in bladder capacity and micturition pressure after the administration was measured. […] Table 3 Tiagabin hydrochloride was dissolved in distilled water, other drugs were dissolved in physiological saline and the drugs were administered intravenously, respectively. Data are shown as the mean ± standard error. After drug administration, animals showing an overflow urinary incontinence-like cystometrogram (urine leakage without the bladder constriction) were excluded from calculation of micturition pressure. *P<0.05, **P<0.01 (significance to the values obtained before drug administration, paired t test, two-tailed test)

[3] = test system: unilaterally decerebrated rat under consciousness; assay: Micturition interval in unilaterally decerebrated rat under consciousness (Test Example 5); conditions: for Micturition interval (min.) After administration / Micturition pressure (mmHg) After administration / Micturition interval (min.) Before administration / Micturition pressure (mmHg) Before administration: mean ± standard error; for Micturition interval (min.) Before administration / Micturition pressure (mmHg) Before administration: 30 minutes before drug
Method: The urinary frequency and urinary incontinence activity of a GABA uptake inhibitor was measured as the ability to increase the micturition interval in a unilaterally decerebrated rat under consciousness as an index. Animals were restricted in a Ballmann cage, and physiological saline was sustained-injected into the bladder at a constant rate (0.05 ml/min.) to induce repeated micturition. In a unilaterally decerebrated rat, micturition interval was decreased, and after the stable micturition interval was confirmed, a drug was administered intravenously or orally to investigate the activity (Table 5 and Table 6). The micturition interval and micturition pressure before and after drug administration were measured for 30 minutes, and the mean values were compared.
A drug was administered intravenously. Cystometogram was continuously measured for 30 minutes starting 15 minutes after drug administration, and it was compared with that for 30 minutes before drug administration. Data are shown as the means ± standard error. *P<0.05 **P<0.01 (significance to before administration, paired t test, two-tailed test) Table 6
A drug was administered orally. A bladder inner pressure curve was continuously measured for 30 minutes starting 60 minutes after drug administration, and it was compared with that for 30 minutes before drug administration. Data are shown as the mean ± standard error. *P<0.05 (significance relative to drug administration, paired t test, two-tailed test)

[4] = test system: rhythmic bladder contractions in urethane-anesthetized rats; assay: Rhythmic bladder contractions in urethane-anesthetized rats (Test Example 2); conditions: mean ± standard error; for Reflex shutdown time: maximum observation period 30 minutes
Method: The urinary frequency and urinary incontinence suppressing activity of a GABA uptake inhibitor was measured as the ability to abolish the rhythmic bladder contractions in urethane-anesthetized rats as an index. An urethra was ligated, a constant volume of physiological saline warmed at 39°C was injected into the bladder to distend the detrusor muscle, and the regular rhythmic bladder contractions at a constant interval were observed. After the stable bladder contractions were confirmed, a compound was administered intravenously to investigate the activities. A time for completely suppressing the rhythmic bladder contractions after the drug administration (reflex shutdown time, a maximum observation period was 30 minutes) and a maximum contractile intravesical pressure at which the bladder contraction appeared again after the administration was measured. […] Table 2 Tiagabin hydrochloride was dissolved in distilled water, other drugs were dissolved in physiological saline, and the drugs were administered intravenously, respectively. Data are shown as mean ± standard error. *P<0.05, **P<0.01 (significance relative to the vehicle-administered control group, nonparametric Dunnett multiple comparison test, two-tailed test) ^#P<0.05 (significance to the values obtained before drug administration, paired t test, two-tailed test). A maximum contractile pressure was calculated from animals from which the bladder constriction was obtained in an observation period.

[5] = test system: rhythmic bladder contractions in urethane-anesthetized guinea pig; assay: Rhythmic bladder contractions in urethane-anesthetized guinea pig (Test Example 1); conditions: mean ± standard error, maximum observation period 30 minutes
Method: The urinary frequency and urinary incontinence suppressing activity of NO-711 hydrochloride was evaluated by the ability to increase an interval between rhythmic bladder contractions in urethane-anesthetized guinea pig as an index. In this model, an urethra was ligated, a constant volume of a physiological saline (3 to 4.5 ml) warmed at 39°C was injected into the bladder to distend, and the regular rhythmic bladder contractions at a constant interval were observed. After the stable rhythmic bladder contractions were confirmed, a compound dissolved in physiological saline was administered intravenously to investigate the activity. Immediately after administration of a drug, the time of complete suppression of the rhythmic bladder contractions (rhythmic bladder contraction shutdown time, maximum observation period was 30 minutes) was measured. Table 1 A drug was administered intravenously. *P<0.05, **P<0.01 (significance to the physiological saline-administered control group, nonparametric Dunnett multiple comparison test, two-tailed test)

[6] = baseline of the 0.1 mg/kg i.v. group
[7] = baseline of the 0.3 mg/kg i.v. group
[8] = baseline of the 1 mg/kg i.v. group
[9] = baseline of the 3 mg/kg i.v. group
[10] = 0.3 mg/kg intravenously, 30 minutes starting 15 minutes after administration
[11] = 1 mg/kg intravenously, 30 minutes starting 15 minutes after administration
[12] = 3 mg/kg intravenously, 30 minutes starting 15 minutes after administration

## Cc1ccsc1C(=CCCN1CCC[C@@H](C(=O)O)C1)c1sccc1C [Tiagabin hydrochloride, (R)-1-[4,4-bis(3-methyl-2-thienyl)-3-butenyl]-3-piperidinecarboxylic acid]
[1]; 0.1 mg/kg intravenously
  Micturition interval (relative to before ligation, %) After administration: 78.8±10.0%
  Micturition pressure (relative to before ligation, %) After administration: 100.7±2.3%
[1]; 0.3 mg/kg intravenously
  Micturition interval (relative to before ligation, %) After administration: 92.1±12.8* %
  Micturition pressure (relative to before ligation, %) After administration: 86.3±9.2%
[1]; 1 mg/kg intravenously
  Micturition interval (relative to before ligation, %) After administration: 100.0±6.5** %
  Micturition pressure (relative to before ligation, %) After administration: 105.0±8.4%
[1]; 3 mg/kg intravenously
  Micturition interval (relative to before ligation, %) After administration: 75.5±15.0* %
  Micturition pressure (relative to before ligation, %) After administration: 106.2 ± 5.3%
[1]; [6]
  Micturition interval (relative to before ligation, %) Before administration: 58.5±3.1%
  Micturition pressure (relative to before ligation, %) Before administration: 103.9±1.1%
[1]; [7]
  Micturition interval (relative to before ligation, %) Before administration: 62.5±4.9%
  Micturition pressure (relative to before ligation, %) Before administration: 91.3±10.6%
[1]; [8]
  Micturition interval (relative to before ligation, %) Before administration: 63.2±3.3%
  Micturition pressure (relative to before ligation, %) Before administration: 111.5±8.3%
[1]; [9]
  Micturition interval (relative to before ligation, %) Before administration: 46.5±11.6%
  Micturition pressure (relative to before ligation, %) Before administration: 105.2±10.8%
[1]; intravenously, interval decreased by bilateral common carotid artery ligation, summary of Table 4
  micturition interval (result in words): showed an increasing effect on micturition interval
[2]; 1 mg/kg intravenously
  Change in bladder capacity (Relative to before administration, %): 42.7±35.6%
  Change in micturition pressure (Relative to before administration, %): 15.2±14.6%
[2]; 3 mg/kg intravenously
  Change in bladder capacity (Relative to before administration, %): 236.8±81.2* %
  Change in micturition pressure (Relative to before administration, %): 29.5±15.6%
[2]; 10 mg/kg intravenously
  Change in bladder capacity (Relative to before administration, %): 276.4±29.4** %
  Change in micturition pressure (Relative to before administration, %): 2.5±10.3%
[3]; [10]
  Micturition interval (min.) After administration: 6.8 ± 0.9 min
  Micturition pressure (mmHg) After administration: 15.1±2.6 mmHg
[3]; [11]
  Micturition interval (min.) After administration: 6.5±1.0* min.
  Micturition pressure (mmHg) After administration: 14.5±1.5 mmHg
[3]; [12]
  Micturition interval (min.) After administration: 7.3±0.5** min.
  Micturition pressure (mmHg) After administration: 16.5±1.6 mmHg
[3]; 3 mg/kg orally, 30 minutes starting 60 minutes after administration
  Micturition interval (min.) After administration: 5.6 ± 0.7 min
[3]; 10 mg/kg orally, 30 minutes starting 60 minutes after administration
  Micturition interval (min.) After administration: 6.1±0.8* min.
[3]; [7]
  Micturition interval (min.) Before administration: 6.6 ± 1.5 min
  Micturition pressure (mmHg) Before administration: 13.9±2.3 mmHg
[3]; [8]
  Micturition interval (min.) Before administration: 5.2 ± 0.7 min
  Micturition pressure (mmHg) Before administration: 14.4±1.4 mmHg
[3]; [9]
  Micturition interval (min.) Before administration: 5.1 ± 0.5 min
  Micturition pressure (mmHg) Before administration: 16.1±1.4 mmHg
[3]; baseline of the 3 mg/kg oral group
  Micturition interval (min.) Before administration: 4.9 ± 0.8 min
[3]; baseline of the 10 mg/kg oral group
  Micturition interval (min.) Before administration: 4.4 ± 0.5 min
[3]; both intravenous and oral administrations, summary of Table 5 and Table 6
  micturition interval (result in words): increased micturition interval
[4]; 0.3 mg/kg intravenously
  Change in maximum contractile intravesical pressure (Relative to before administration, %): -12.6±5.8%
  Reflex shutdown time: 4.7 ± 1.6 min
[4]; 1 mg/kg intravenously
  Change in maximum contractile intravesical pressure (Relative to before administration, %): 4.5±17.3%
  Reflex shutdown time: 11.6 ± 3.8 min
[4]; 3 mg/kg intravenously
  Change in maximum contractile intravesical pressure (Relative to before administration, %): -19.4±11.8%
  Reflex shutdown time: 18.0±3.5* min.
[4]; 10 mg/kg intravenously
  Change in maximum contractile intravesical pressure (Relative to before administration, %): -31.6±10.5%
  Reflex shutdown time: 24.6±3.1** min.

## O=C(O)C1=CCCN(CCON=C(c2ccccc2)c2ccccc2)C1 [NO-711 hydrochloride]
[2]; 0.3 mg/kg intravenously
  Change in bladder capacity (Relative to before administration, %): -8.4±11.3%
  Change in micturition pressure (Relative to before administration, %): -18.1±10.5%
[2]; 1 mg/kg intravenously
  Change in bladder capacity (Relative to before administration, %): 180.9±76.8* %
  Change in micturition pressure (Relative to before administration, %): 16.4±8.2%
[2]; 3 mg/kg intravenously
  Change in bladder capacity (Relative to before administration, %): 188.7±45.3** %
  Change in micturition pressure (Relative to before administration, %): 14.6±18.2%
[5]; 1 mg/kg intravenously
  Rhythmic bladder contraction shutdown time: 5.9 ± 1.3 min
[5]; 3 mg/kg intravenously
  Rhythmic bladder contraction shutdown time: 18.4±5.0* minutes
[5]; 10 mg/kg intravenously
  Rhythmic bladder contraction shutdown time: 16.9±3.6** minutes
[4]; 0.3 mg/kg intravenously
  Change in maximum contractile intravesical pressure (Relative to before administration, %): -3.3±3.2%
  Reflex shutdown time: 3.8 ± 1.1 min
[4]; 1 mg/kg intravenously
  Change in maximum contractile intravesical pressure (Relative to before administration, %): -19.7±5.6* %
  Reflex shutdown time: 11.4±2.9** min.
[4]; 3 mg/kg intravenously
  Change in maximum contractile intravesical pressure (Relative to before administration, %): -8.4±5.8%
  Reflex shutdown time: 12.1±2.5** min.

## O=C(O)[C@@H]1CCCN(CCC=C(c2ccccc2)c2ccccc2)C1 [SKF89976A hydrochloride, (R)-1-(4,4-diphenyl-3-butenyl)-3-piperidinecarboxylic acid]
[4]; 3 mg/kg intravenously
  Change in maximum contractile intravesical pressure (Relative to before administration, %): -7.1±3.1%
  Reflex shutdown time: 5.0 ± 1.0 min
[4]; 10 mg/kg intravenously
  Change in maximum contractile intravesical pressure (Relative to before administration, %): -12.1±11.5%
  Reflex shutdown time: 15.7±3.3* min.
[4]; 30 mg/kg intravenously
  Change in maximum contractile intravesical pressure (Relative to before administration, %): -8.4±10.6%
  Reflex shutdown time: 25.1±4.6** min.
